Laboratory results published in patent EP0267994B2, “The use of a metal complex for the manufacture of a composition for treating dental structures” (NATIONAL RESEARCH LABORATORIES, priority 1986, dated 1988).
Several values for one entry are separate records, joined by “and”; a condition that tells them apart may be missing. Equal entries are not always repeated.

Assay: case series: professional polishing of the six lower front teeth of heavy calculus formers with MCC paste
Format: in vivo, human
Experimental: This is an example of a series of cases of patients who have been confirmed as heavy calculus formers that were treated with the 1:1 metal complex. Generally, the medication utilized was composed of the active ingredient, disodium monocopper(II) citrate (MCC), C.A.S. Registry Number: 65330-59-8, dispersed in an aqueous vehicle comprising aluminum hydroxide, dicalcium phosphate, sorbitol, carboxymethylcellulose and water to form a paste. All of the cases incorporated herewith, as an example, were confirmed diagnostically by a dentist employing the usual examining techniques, i.e., physical examination, etc. The ages of the patients who participated in this example ranged from 35 to 73 years.
All of the patients in this example, prior to their treatment with the 1:1 metal complexes, had self-treated. In self-treating, all patients brushed with a standard dentifrice, flossed, and applied a mixture of baking soda, salt and water to their teeth at least once a day to contain or control calculus build up. Subsequent to and in conjunction with self-treatment, each patient received professionally a standard course of therapy which involved routinely scaling the teeth with a hand pick and an ultrasonic scaler and polishing the teeth mechanically with a mixture of pumice and stannous fluoride via a rubber prophylaxis cup. The patients in this example were treated every 3, 4 or 6 months and the length of standard treatment by the dentist ranged from about 4 years to about 12 years.
At the time of the first examination by the dentist, each patient's mouth was in extremely poor condition, and gross calculus build up was observed; however, no caries or restorations were present.
Subsequent to the standard professional therapy, treatment of all sides of the six lower front teeth with MCC were initiated and performed by the dentist every 3, 4 or 6 months for a total of 10 months. Treatment consisted of first scaling the six lower front teeth with a hand pick and an ultrasonic scaler to debride the teeth and then polishing the teeth mechanically with the above described MCC mixture via a rubber prophylaxis cup. […] The overall appearance of the six lower front teeth was excellent. […] For a more detailed presentation of this example, see the following table.

## O=C([O-])CC(O)(CC(=O)[O-])C(=O)O.[Cu+2] [MCC, disodium-monocopper(II) citrate]
Calculus Accumulation code 1 = worst condition, 10 = best condition (total absence of accumulation), one value per patient, six lower front teeth, MCC paste every 3, 4 or 6 months for 10 months
  Amt. of Calculus after Application of MCC: +8 (2×) and +9 (2×) and +7
After therapy with the copper complex
  overall appearance of the six lower front teeth: excellent
All patients, compared to the remaining teeth treated with the standard therapy
  calculus accumulation on the six lower front teeth: dramatic reduction in calculus accumulation
Five patients, treatment over 10 months
  side effects or tissue irritation: no side effects or tissue irritation
Two of five patients
  taste complaint: metallic taste from the MCC mixture which subsided immediately upon rinsing
